# Reference: patent US11597724B2, “Herbicidally active 3-phenylisoxazoline-5-carboxamides of tetrahydro and dihydrofuran carboxylic acids and esters” (Bayer Aktiengesellschaft, priority 2017, dated 2023)
# Columns and labels:
# Assay type in all cases: in vivo
# [1] = tested on: Stellaria media; assay: Post-emergence herbicidal activity against STEME; conditions: Stellaria media, 504 h, dosage 320 g/ha, rated about 3 weeks after treatment
# Outline: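 Greenhouse plants treated at one-leaf stage, 2–3 weeks after sowing, by spraying WP or EC formulations with 0.5% additive at 600 l/ha water. Visual rating about 3 weeks later versus untreated controls (100% = plants dead, 0% = like controls).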
# [2] = tested on: Pharbitis purpurea; assay: Post-emergence herbicidal activity against PHBPU; conditions: Ipomoea purpurea, 504 h, dosage 320 g/ha, rated about 3 weeks after treatment
# Outline: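 Greenhouse-grown plants sprayed post-emergence at the one-leaf stage, 2 to 3 weeks after sowing, with WP or EC formulations plus 0.5% additive at 600 l/ha water. Activity rated visually after about 3 weeks versus untreated controls (100% = plants dead, 0% = like control).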
# [3] = Pre-emergence treatment, summary over harmful plants; conditions: 504 h, application rate of 0.08 kg of active substance or less per hectare, read-out: herbicidal action, pre-emergence treatment (very good activity)
# Source text: 1. Pre-Emergence Herbicidal Action and Crop Plant Compatibility
# (§1) Seeds of monocotyledonous and dicotyledonous weed plants and crop plants are placed in plastic or wood fiber pots and covered with soil. The compounds of the invention, formulated in the form of wettable powders (WP) or as emulsion concentrates (EC), are then applied onto the surface of the covering soil as aqueous suspension or emulsion with addition of 0.5% additive at a water application rate of 600 l/ha (converted). After the treatment, the pots are placed in a greenhouse and kept under good growth conditions for the trial plants. After about 3 weeks, the effect of the preparations is scored visually in comparison with untreated controls as percentages. For example, 100% activity=the plants have died, 0% activity=like control plants.
# As shown by the results, compounds according to the invention such as, for example, the compounds No. I-21 and other compounds from the tables (for example I-10, I-26, I-09, I-30, I-28, I-29, I-27, I-01, I-06, I-34, I-19, I-11, I-36, I-37, I-38, I-41, I-42, I-43, I-44, I-46, I-49) have, when used for pre-emergence treatment, very good activity (80% to 100% herbicidal action) against harmful plants such as Abutilon theophrasti, Alopecurus myosuroides, Amaranthus retroflexus, Avena fatua, Echinochloa crus-galli, Hordeum murinum, Lolium rigidum, Pharbitis purpurea, Polygonum convolvulus, Setaria viridis, Stellaria media, Veronica persica and Viola tricolor at an application rate of 0.08 kg of active substance or less per hectare.
# [4] = tested on: Viola tricolor; assay: Post-emergence herbicidal activity against VIOTR; conditions: Viola tricolor, 504 h, dosage 320 g/ha, rated about 3 weeks after treatment
# Outline: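 Greenhouse plants in sandy loam treated at one-leaf stage, 2 to 3 weeks after sowing, by spraying WP or EC formulations with 0.5% additive at 600 l/ha water. Activity rated visually after about 3 weeks versus untreated controls, 100% = plants dead, 0% = like control.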
# [5] = tested on: Amaranthus retroflexus; assay: Pre-emergence herbicidal activity against AMARE; conditions: Amaranthus retroflexus, 504 h, dosage 80 g/ha
# Source text: as §1, with “1. Pre-Emergence Herbicidal Action and Crop Plant Compatibility Seeds of” for “Seeds of”, “control plants. AMARE: Amaranthus retroflexus AVEFA: Avena fatua” for “control plants.”
Structure (SMILES),pest or weed control at 320 g/ha [1] [%],pest or weed control at 320 g/ha [2] [%],pest or weed control at 80 g/ha [3] [%],pest or weed control at 320 g/ha [4] [%],pest or weed control at 80 g/ha [5] [%]
"COC(=O)[C@H]1C[C@@H](NC(=O)C2(OC)CC(c3ccccc3)=NO2)CO1 (relative stereo) [I-14, methyl cis-4-[(5-methoxy-3-phenyl-4H-isoxazole-5-carbonyl)amino]tetrahydrofuran-2-carboxylate]",90,80,,,
"CC1(C(=O)N[C@H]2CO[C@@H](C(=O)OCc3ccccc3)C2)CC(c2cccc(F)c2)=NO1 (mixture of isomers) [I-34, benzyl cis-4-[[(5RS)-3-(3-fluorophenyl)-5-methyl-4H-isoxazole-5-carbonyl]amino]tetrahydrofuran-2-carboxylate]",90,90,80 to 100,,
"COC(=O)[C@H]1C[C@@H](NC(=O)C2(C)CC(c3cc(F)cc(F)c3)=NO2)CO1 (relative stereo) [I-01, methyl cis-4-[[3-(3,5-difluorophenyl)-5-methyl-4H-isoxazole-5-carbonyl]amino]tetrahydrofuran-2-carboxylate]",90,90,80 to 100,90,
"CC(C)(C)OC(=O)[C@H]1C[C@@H](NC(=O)C2(C)CC(c3cccc(F)c3)=NO2)CO1 (mixture of isomers) [I-33, tert-butyl cis-4-[[(5RS)-3-(3-fluorophenyl)-5-methyl-4H-isoxazole-5-carbonyl]amino]tetrahydrofuran-2-carboxylate]",90,90,,,
"C=CC1(C(=O)NC2=C(C(=O)OCC)COC2)CC(c2cc(F)cc(F)c2)=NO1 (stereo not drawn) [I-23, ethyl 4-[[3-(3,5-difluorophenyl)-5-vinyl-4H-isoxazole-5-carbonyl]amino]-2,5-dihydrofuran-3-carboxylate]",90,90,,,80
"COC(=O)[C@H]1C[C@@H](NC(=O)C2(OC)CC(c3cc(F)cc(F)c3)=NO2)CO1 (relative stereo) [I-05, methyl cis-4-[[3-(3,5-difluorophenyl)-5-methoxy-4H-isoxazole-5-carbonyl]amino]tetrahydrofuran-2-carboxylate]",90,90,,,
"C=CC1(C(=O)N[C@H]2CO[C@@H](C(=O)OC)C2)CC(c2cc(Cl)cc(Cl)c2)=NO1 (relative stereo) [I-03, methyl cis-4-[[3-(3,5-dichlorophenyl)-5-vinyl-4H-isoxazole-5-carbonyl]amino]tetrahydrofuran-2-carboxylate]",90,90,,,80
"COC(=O)[C@H]1C[C@@H](NC(=O)[C@@]2(C)CC(c3cc(F)cc(F)c3)=NO2)CO1 (mixture of isomers) [I-09, methyl cis-4-[[(5R)-3-(3,5-difluorophenyl)-5-methyl-4H-isoxazole-5-carbonyl]amino]tetrahydrofuran-2-carboxylate]",90,90,80 to 100,80,80
"COC(=O)[C@@]1(OC)C[C@@H](NC(=O)C2(C)CC(c3cccc(F)c3)=NO2)CO1 (stereo partly drawn) [I-47, methyl (2R,4R)-4-[[3-(3-fluorophenyl)-5-methyl-4H-isoxazole-5-carbonyl]amino]-2-methoxytetrahydrofuran-2-carboxylate]",90,90,,80,
"COC(=O)[C@H]1C[C@H](NC(=O)[C@@]2(C)CC(c3cc(F)cc(F)c3)=NO2)CO1 (mixture of isomers) [I-55, methyl trans-4-[[(5R)-3-(3,5-difluorophenyl)-5-methyl-4H-isoxazole-5-carbonyl]amino]tetrahydrofuran-2-carboxylate]",90,90,,90,
"C=C[C@]1(C(=O)N[C@@H]2CO[C@@H](C(=O)OC)C2)CC(c2cc(F)cc(F)c2)=NO1 (mixture of isomers) [I-56, methyl trans-4-[[(5S)-3-(3,5-difluorophenyl)-5-vinyl-4H-isoxazole-5-carbonyl]amino]tetrahydrofuran-2-carboxylate]",90,90,,90,
"CCOC(=O)[C@H]1C[C@@H](NC(=O)C2(C)CC(c3cccc(F)c3)=NO2)CO1 (mixture of isomers) [I-30, ethyl cis-4-[[(5RS)-3-(3-fluorophenyl)-5-methyl-4H-isoxazole-5-carbonyl]amino]tetrahydrofuran-2-carboxylate]",90,90,80 to 100,,80
"COC(=O)[C@H]1C[C@@H](NC(=O)C2(C)CC(c3cc(C)cc(Br)c3)=NO2)CO1 (relative stereo) [I-04, methyl cis-4-[[3-(3-bromo-5-methylphenyl)-5-methyl-4H-isoxazole-5-carbonyl]amino]tetrahydrofuran-2-carboxylate]",90,90,,80,
"CC(C)OC(=O)[C@H]1C[C@@H](NC(=O)C2(C)CC(c3cccc(F)c3)=NO2)CO1 (mixture of isomers) [I-32, isopropyl cis-4-[[(5RS)-3-(3-fluorophenyl)-5-methyl-4H-isoxazole-5-carbonyl]amino]tetrahydrofuran-2-carboxylate]",90,90,,,90
"COC(=O)C1=C[C@H](NC(=O)C2(C)CC(c3cccc(F)c3)=NO2)CO1 (stereo partly drawn) [I-39, methyl (3S)-3-[[3-(3-fluorophenyl)-5-methyl-4H-isoxazole-5-carbonyl]amino]-2,3-dihydrofuran-5-carboxylate]",90,90,,80,
"COC(=O)C1COCC1NC(=O)C1(OC)CC(c2cc(Cl)cc(Cl)c2)=NO1 (stereo not drawn) [I-29, methyl 4-[[3-(3,5-dichlorophenyl)-5-methoxy-4H-isoxazole-5-carbonyl]amino]tetrahydrofuran-3-carboxylate]",80,80,80 to 100,80,90
"C=CC1(C(=O)N[C@H]2CO[C@@H](C(=O)OC)C2)CC(c2cccc(F)c2)=NO1 (relative stereo) [I-07, methyl cis-4-[[3-(3-fluorophenyl)-5-vinyl-4H-isoxazole-5-carbonyl]amino]tetrahydrofuran-2-carboxylate]",90,90,,,90
"COC(=O)[C@H]1C[C@@H](NC(=O)C2(OC)CC(c3cc(C)cc(Br)c3)=NO2)CO1 (relative stereo) [I-08, methyl cis-4-[[3-(3-bromo-5-methylphenyl)-5-methoxy-4H-isoxazole-5-carbonyl]amino]tetrahydrofuran-2-carboxylate]",,90,,80,
"COC(=O)C1COCC1NC(=O)C1(C)CC(c2cc(F)cc(F)c2)=NO1 (stereo not drawn) [I-19, methyl 4-[[3-(3,5-difluorophenyl)-5-methyl-4H-isoxazole-5-carbonyl]amino]tetrahydrofuran-3-carboxylate]",90,80,80 to 100,80,
